According to patent US9346815B2, “5-chloro-2-difluoromethoxyphenyl pyrazolopyrimidine compounds, compositions and methods of use thereof” (Genentech, Inc., priority 2014, dated 2016):

Legend:
[1] = target: isolated recombinant JAK1 kinase domain (Homo sapiens (Human), UniProt P23458); assay: JAK1 enzyme assay (Caliper LabChip, peptide phosphorylation); format: biochemical; details: isolated recombinant JAK1 kinase domain, 25 μM ATP
[2] = target: isolated recombinant JAK2 kinase domain (Homo sapiens (Human), UniProt O60674); assay: JAK2 enzyme assay (Caliper LabChip, peptide phosphorylation); format: biochemical; details: 25 μM ATP
Chain of isolated recombinant JAK2 kinase domain (O60674 849-1124): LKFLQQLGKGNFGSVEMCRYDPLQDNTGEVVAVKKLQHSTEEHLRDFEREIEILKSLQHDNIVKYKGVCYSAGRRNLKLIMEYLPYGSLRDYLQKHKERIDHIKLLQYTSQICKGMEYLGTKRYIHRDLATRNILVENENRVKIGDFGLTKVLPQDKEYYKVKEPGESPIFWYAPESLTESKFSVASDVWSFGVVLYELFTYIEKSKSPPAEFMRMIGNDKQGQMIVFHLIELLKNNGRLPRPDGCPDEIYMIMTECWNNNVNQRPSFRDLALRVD

[3] = test system: JAK1-dependent STAT6 phosphorylation downstream of IL-13 stimulation in TF-1 human erythroleukemia cells; assay: JAK1 pathway assay in TF-1 cells (IL-13-pSTAT6, MSD); format: cell-based; details: Homo sapiens, TF-1, TF-1 cells, read-out: IL13-pSTAT6 EC50_TF-1
Outline: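 TF-1 cells are starved of GM-CSF overnight and run in serum-free medium, while BEAS-2B cells stay in complete growth medium. Inhibition of STAT6 phosphorylation is measured by MSD.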

Chain of isolated recombinant JAK1 kinase domain (P23458 875-1153): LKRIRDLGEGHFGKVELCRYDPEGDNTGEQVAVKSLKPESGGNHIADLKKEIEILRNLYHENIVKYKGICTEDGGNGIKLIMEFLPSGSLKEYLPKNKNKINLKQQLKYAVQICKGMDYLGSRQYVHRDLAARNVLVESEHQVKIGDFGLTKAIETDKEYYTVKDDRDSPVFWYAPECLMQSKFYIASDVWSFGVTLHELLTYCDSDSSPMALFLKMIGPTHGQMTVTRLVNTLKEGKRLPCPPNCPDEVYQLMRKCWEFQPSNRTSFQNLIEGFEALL

Compound	Ki [1]	Ki [2]	EC50 [3]
CN(CCCC(N)=O)C1CCN(c2nc(-c3cc(Cl)ccc3OC(F)F)c(NC(=O)c3cnn4cccnc34)s2)CC1 [Example 193, N-[2-[4-[(4-amino-4-oxo-butyl)-methyl-amino]-1-piperidyl]-4-[5-chloro-2-(difluoromethoxy)phenyl]thiazol-5-yl]pyrazolo[1,5-a]pyrimidine-3-carboxamide]	2.23 nM	1.46 nM	23.5 nM
CN1CC[C@@H](n2cc(NC(=O)c3c(N)nn4cccnc34)c(-c3cc(Cl)ccc3OC(F)F)n2)C1 [Example 183, 2-amino-N-[3-[5-chloro-2-(difluoromethoxy)phenyl]-1-[(3R)-1-methylpyrrolidin-3-yl]pyrazol-4-yl]pyrazolo[1,5-a]pyrimidine-3-carboxamide]	0.49 nM	0.23 nM	6.8 nM
O=C(Nc1cn(CC(=O)N2C[C@H]3CNC[C@H]3C2)nc1-c1cc(Cl)ccc1OC(F)F)c1cnn2cccnc12 [Example 4, Cis-pyrazolo[1,5-a]pyrimidine-3-carboxylic acid {3-(5-chloro-2-difluoromethoxyphenyl)-1-[2-(hexahydropyrrolo[3,4-c]pyrrol-2-yl)-2-oxoethyl]-1H-pyrazol-4-yl}amide]	0.66 nM	0.8 nM	547 nM
CN(C)Cc1ccc(-c2nc(-c3cc(Cl)ccc3OC(F)F)c(NC(=O)c3cnn4cccnc34)s2)cc1 [Example 255, N-[4-[5-chloro-2-(difluoromethoxy)phenyl]-2-[4-[(dimethylamino)methyl]phenyl]thiazol-5-yl]pyrazolo[1,5-a]pyrimidine-3-carboxamide]	0.56 nM	0.4 nM	86.2 nM
CC(C)N1C[C@H]2CN(C(=O)Cn3cc(NC(=O)c4cnn5cccnc45)c(-c4cc(Cl)ccc4OC(F)F)n3)C[C@H]2C1 [Example 12, N-[1-[2-[(3aS,6aR)-2-isopropyl-1,3,3a,4,6,6a-hexahydropyrrolo[3,4-c]pyrrol-5-yl]-2-oxo-ethyl]-3-[5-chloro-2-(difluoromethoxy)phenyl]pyrazol-4-yl]pyrazolo[1,5-a]pyrimidine-3-carboxamide]	1.3 nM	1.17 nM	15 nM
CN(CC1(C)COC1)C1CCN(C(=O)Cn2cc(NC(=O)c3cnn4cccnc34)c(-c3cc(Cl)ccc3OC(F)F)n2)CC1 [Example 96, N-[3-[5-chloro-2-(difluoromethoxy)phenyl]-1-[2-[4-[methyl-[(3-methyloxetan-3-yl)methyl]amino]-1-piperidyl]-2-oxo-ethyl]pyrazol-4-yl]pyrazolo[1,5-a]pyrimidine-3-carboxamide]	0.63 nM	1.4 nM	4.1 nM
CC(C)CN1CCC(n2cc(NC(=O)c3c(N)nn4cccnc34)c(-c3cc(Cl)ccc3OC(F)F)n2)CC1 [Example 174, 2-amino-N-[3-[5-chloro-2-(difluoromethoxy)phenyl]-1-(1-isobutyl-4-piperidyl)pyrazol-4-yl]pyrazolo[1,5-a]pyrimidine-3-carboxamide]	0.67 nM	0.09 nM	12.3 nM
Cc1ccc(CN(C)C2CCN(C(=O)Cn3cc(NC(=O)c4cnn5cccnc45)c(-c4cc(Cl)ccc4OC(F)F)n3)CC2)c(C)c1 [Example 129, N-[3-[5-chloro-2-(difluoromethoxy)phenyl]-1-[2-[4-[(2,4-dimethylphenyl)methyl-methyl-amino]-1-piperidyl]-2-oxo-ethyl]pyrazol-4-yl]pyrazolo[1,5-a]pyrimidine-3-carboxamide]	1.14 nM	3.33 nM	14.2 nM
CN(C)C[C@@H]1CCCN1C(=O)Cn1cc(NC(=O)c2c(N)nn3cccnc23)c(-c2cc(Cl)ccc2OC(F)F)n1 [Example 79, 2-amino-N-[3-[5-chloro-2-(difluoromethoxy)phenyl]-1-[2-[(2S)-2-[(dimethylamino)methyl]pyrrolidin-1-yl]-2-oxo-ethyl]pyrazol-4-yl]pyrazolo[1,5-a]pyrimidine-3-carboxamide]	4.54 nM	2.11 nM	158 nM
